Laboratory results reported in patent US20250387375A1, “SOFALCONE DERIVATIVES AND MEDICAL USE THEREOF” (KAOHSIUNG MEDICAL UNIVERSITY, priority 2024, published 2025).
pIC50: −log10 of the molar value.

Tested on: human platelet suspension (platelet aggregation caused by collagen)
Experiment: Platelet aggregation reaction test, collagen-induced
Type: cell-based
Details: read-out: Collagen IC 50
Protocol: (§1) Blood samples were collected from healthy donors, and acid-citrate-dextrose (ACD) solution was used as an anticoagulant. The blood samples were centrifuged to obtain platelets, and residual plasma was removed by washing to prepare platelet suspension.
(§2) In the experimental method, a platelet aggregometer (Chrono-Log Co., Havertown, PA, USA) was used for tests. The compound to be tested was added to the platelet suspension and reacted for 3 minutes at 37° C. with stirring (1200 rpm). Then, platelet stimulator U46619 or collagen was added to initiate platelet aggregation, and the test time was 5 minutes. The principle of the platelet aggregation test was: when platelets were stimulated to induce aggregation reaction, the light transmission of the platelet suspension would increase; by calculating changes in light transmission of the platelet suspension before and after being stimulated, the percentage of platelet aggregation could be obtained.

Row | SMILES | pIC50
1 | COC(=O)COc1cc(OCc2ccc(OC)cc2)ccc1C(=O)C=Cc1ccc(OCc2ccc(OC)cc2)cc1 [Compound 87] | < 4.00
2 | O=C(O)COc1cc(OCc2ccccc2)ccc1C(=O)C=Cc1ccc(OCc2ccccc2)cc1 [Compound 88] | 4.35
3 | O=C(O)COc1cc(OCc2ccc(F)cc2)ccc1C(=O)C=Cc1ccc(OCc2ccc(F)cc2)cc1 [Compound 89] | 4.47
4 | CCCCOc1ccc(C=CC(=O)c2ccc(OCCCC)cc2OCC(=O)OC)cc1 [Compound 90] | < 4.00
5 | CCCCCCOc1ccc(C=CC(=O)c2ccc(OCCCCCC)cc2OCC(=O)OC)cc1 [Compound 91] | < 4.30
6 | CCCCCCCCOc1ccc(C=CC(=O)c2ccc(OCCCCCCCC)cc2OCC(=O)OC)cc1 [Compound 92] | < 4.30
7 | CCCCCCCCCCOc1ccc(C=CC(=O)c2ccc(OCCCCCCCCCC)cc2OCC(=O)OC)cc1 [Compound 93] | < 4.30
8 | CCCCOc1ccc(C=CC(=O)c2ccc(OCCCC)cc2OCC(=O)O)cc1 [Compound 94] | 4.20
9 | CCCCCCOc1ccc(C=CC(=O)c2ccc(OCCCCCC)cc2OCC(=O)O)cc1 [Compound 95] | 4.12
10 | CCCCCCCCOc1ccc(C=CC(=O)c2ccc(OCCCCCCCC)cc2OCC(=O)O)cc1 [Compound 96] | < 4.00
11 | CCCCCCCCCCOc1ccc(C=CC(=O)c2ccc(OCCCCCCCCCC)cc2OCC(=O)O)cc1 [Compound 97] | < 4.30
12 | CC(C)CCOc1ccc(CCC(=O)c2ccc(OCCC(C)C)cc2OCC(=O)O)cc1 [Compound 100] | 4.18

Molecules with a higher pIC50, results first:

Row | pIC50 | SMILES
13 | 4.88 | CCOC(=O)CCCCCCCOc1ccccc1C(=O)C=Cc1ccccc1 [Compound 106]
14 | 5.04 | O=C(O)CCCCCCOc1ccccc1C(=O)C=Cc1ccccc1 [Compound 105]
15 | 5.08 | O=C(O)CCCCCCCOc1ccccc1C(=O)C=Cc1ccccc1 [Compound 107]
16 | 5.19 | CC(C)=CCOc1ccc(C=CC(=O)c2ccccc2OCCCC(=O)O)cc1 [Compound 99]
17 | 5.23 | CCOC(=O)CCCCCOc1ccccc1C(=O)CCc1ccccc1 [Compound 115]
18 | 5.27 | CCOC(=O)CCCCCCOc1ccccc1C(=O)C=Cc1ccccc1 [Compound 104]
19 | 5.28 | CC1=C(C)C(=O)C(C(CCCCCC(=O)O)c2ccccc2)=C(C)C1=O (stereo not shown) [Seratrodast, reference compound]
20 | 5.31 | CCOC(=O)CCCOc1ccccc1C(=O)C=Cc1ccccc1 [Compound 109]
21 | 5.35 | CCOC(=O)CCCCOc1ccccc1C(=O)C=Cc1ccccc1 [Compound 110]
22 | 5.35 | O=C(O)CCCCCOc1ccccc1C(=O)CCc1ccccc1 [Compound 116]
23 | 5.44 | CCOC(=O)COc1ccccc1C(=O)C=Cc1ccccc1 [Compound 108]
24 | 5.49 | O=C(O)CCCCOc1ccccc1C(=O)C=Cc1ccccc1 [Compound 101]
25 | 5.50 | CC(C)=CCOc1ccc(C=CC(=O)c2ccccc2OCCCCC(=O)O)cc1 [Compound 102]
26 | 5.57 | COC(=O)CCCOc1ccccc1C(=O)C=Cc1ccccc1 [Compound 112]
27 | 6.42 | CC(C)=CCOc1ccc(C=CC(=O)c2ccccc2OCCCCCC(=O)O)cc1 [Compound 103]
28 | 6.46 | COC(=O)CCCCCOc1ccccc1C(=O)C=Cc1ccccc1 [Compound 113]
29 | 6.66 | CCOC(=O)CCCCCOc1ccccc1C(=O)C=Cc1ccccc1 [Compound 111]

Tested on: human platelet suspension (platelet aggregation caused by TxA2 agonist U46619)
Experiment: Platelet aggregation reaction test, U46619-induced
Type: cell-based
Details: not given
Protocol: as §1, §2

Row | SMILES | pIC50
30 | COC(=O)COc1cc(OCc2ccc(OC)cc2)ccc1C(=O)C=Cc1ccc(OCc2ccc(OC)cc2)cc1 [Compound 87] | < 4.00
31 | O=C(O)COc1cc(OCc2ccccc2)ccc1C(=O)C=Cc1ccc(OCc2ccccc2)cc1 [Compound 88] | 5.04
32 | O=C(O)COc1cc(OCc2ccc(F)cc2)ccc1C(=O)C=Cc1ccc(OCc2ccc(F)cc2)cc1 [Compound 89] | 5.44
33 | CCCCOc1ccc(C=CC(=O)c2ccc(OCCCC)cc2OCC(=O)OC)cc1 [Compound 90] | < 4.00
34 | CCCCCCOc1ccc(C=CC(=O)c2ccc(OCCCCCC)cc2OCC(=O)OC)cc1 [Compound 91] | < 4.30
35 | CCCCCCCCOc1ccc(C=CC(=O)c2ccc(OCCCCCCCC)cc2OCC(=O)OC)cc1 [Compound 92] | < 4.30
36 | CCCCCCCCCCOc1ccc(C=CC(=O)c2ccc(OCCCCCCCCCC)cc2OCC(=O)OC)cc1 [Compound 93] | < 4.30
37 | CCCCOc1ccc(C=CC(=O)c2ccc(OCCCC)cc2OCC(=O)O)cc1 [Compound 94] | 4.39
38 | CCCCCCOc1ccc(C=CC(=O)c2ccc(OCCCCCC)cc2OCC(=O)O)cc1 [Compound 95] | 4.43
39 | CCCCCCCCOc1ccc(C=CC(=O)c2ccc(OCCCCCCCC)cc2OCC(=O)O)cc1 [Compound 96] | < 4.00
40 | CCCCCCCCCCOc1ccc(C=CC(=O)c2ccc(OCCCCCCCCCC)cc2OCC(=O)O)cc1 [Compound 97] | < 4.30
41 | CC(C)CCOc1ccc(CCC(=O)c2ccc(OCCC(C)C)cc2OCC(=O)O)cc1 [Compound 100] | 5.76

Results, then the molecule that gave them:

Row | pIC50 | SMILES
42 | 5.55 | CCOC(=O)CCCCCCCOc1ccccc1C(=O)C=Cc1ccccc1 [Compound 106]
43 | 5.53 | O=C(O)CCCCCCOc1ccccc1C(=O)C=Cc1ccccc1 [Compound 105]
44 | 5.60 | O=C(O)CCCCCCCOc1ccccc1C(=O)C=Cc1ccccc1 [Compound 107]
45 | 5.48 | CC(C)=CCOc1ccc(C=CC(=O)c2ccccc2OCCCC(=O)O)cc1 [Compound 99]
46 | 6.70 | CCOC(=O)CCCCCOc1ccccc1C(=O)CCc1ccccc1 [Compound 115]
47 | 4.87 | CCOC(=O)CCCCCCOc1ccccc1C(=O)C=Cc1ccccc1 [Compound 104]
48 | 6.15 | CC1=C(C)C(=O)C(C(CCCCCC(=O)O)c2ccccc2)=C(C)C1=O (stereo not shown) [Seratrodast, reference compound]
49 | 5.02 | CCOC(=O)CCCOc1ccccc1C(=O)C=Cc1ccccc1 [Compound 109]
50 | 5.54 | CCOC(=O)CCCCOc1ccccc1C(=O)C=Cc1ccccc1 [Compound 110]
51 | 6.70 | O=C(O)CCCCCOc1ccccc1C(=O)CCc1ccccc1 [Compound 116]
52 | 4.81 | CCOC(=O)COc1ccccc1C(=O)C=Cc1ccccc1 [Compound 108]
53 | 5.45 | O=C(O)CCCCOc1ccccc1C(=O)C=Cc1ccccc1 [Compound 101]
54 | 5.62 | CC(C)=CCOc1ccc(C=CC(=O)c2ccccc2OCCCCC(=O)O)cc1 [Compound 102]
55 | 4.87 | COC(=O)CCCOc1ccccc1C(=O)C=Cc1ccccc1 [Compound 112]
56 | 6.34 | CC(C)=CCOc1ccc(C=CC(=O)c2ccccc2OCCCCCC(=O)O)cc1 [Compound 103]
57 | 6.24 | COC(=O)CCCCCOc1ccccc1C(=O)C=Cc1ccccc1 [Compound 113]
58 | 6.80 | CCOC(=O)CCCCCOc1ccccc1C(=O)C=Cc1ccccc1 [Compound 111]
